From patent publication US20230113037A1 (Bayer Aktiengesellschaft, priority 2019, published 2023) come the findings set out here.

Experiment [1] has as its target T1, AHR (Homo sapiens, UniProt P35869).
T1 construct: U87 MG glioblastoma cells (ATCC #HTB-14) endogenously expressing AHR; endogenous in cells; host or cells: U87 MG glioblastoma cells (ATCC #HTB-14)
T1 sequence (P35869 11-848): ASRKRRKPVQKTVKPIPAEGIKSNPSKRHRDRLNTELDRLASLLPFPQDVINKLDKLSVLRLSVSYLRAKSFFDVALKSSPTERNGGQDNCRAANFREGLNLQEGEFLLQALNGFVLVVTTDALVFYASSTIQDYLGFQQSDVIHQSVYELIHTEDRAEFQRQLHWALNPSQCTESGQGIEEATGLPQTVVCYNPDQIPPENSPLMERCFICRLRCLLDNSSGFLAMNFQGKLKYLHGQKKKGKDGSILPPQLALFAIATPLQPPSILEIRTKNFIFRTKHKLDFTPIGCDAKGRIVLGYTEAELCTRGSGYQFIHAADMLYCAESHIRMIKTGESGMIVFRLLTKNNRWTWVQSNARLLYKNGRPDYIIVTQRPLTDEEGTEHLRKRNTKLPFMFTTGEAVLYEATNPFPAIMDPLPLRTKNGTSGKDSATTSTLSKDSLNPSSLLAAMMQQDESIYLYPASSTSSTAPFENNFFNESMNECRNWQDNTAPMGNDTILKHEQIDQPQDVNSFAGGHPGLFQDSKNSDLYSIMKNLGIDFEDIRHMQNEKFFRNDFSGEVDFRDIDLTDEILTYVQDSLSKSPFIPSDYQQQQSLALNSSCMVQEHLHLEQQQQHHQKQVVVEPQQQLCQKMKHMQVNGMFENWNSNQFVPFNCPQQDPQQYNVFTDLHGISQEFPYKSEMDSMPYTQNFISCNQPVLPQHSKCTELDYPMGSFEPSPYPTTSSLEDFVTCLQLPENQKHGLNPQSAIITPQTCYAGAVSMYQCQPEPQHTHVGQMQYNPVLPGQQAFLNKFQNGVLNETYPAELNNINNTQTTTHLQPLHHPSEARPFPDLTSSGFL
Put plainly: In vitro assay 1: antagonism in human cell line (AHR transactivation, firefly luciferase reporter, kynurenic acid prestimulated). To be noted: AHR Antagonism Human IC50 [M]. The format is cell-based. In a few lines:
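Antagonism is measured against kynurenic acid prestimulation in U87 MG glioblastoma cells carrying stable DRE-luciferase and Renilla reporters. Positive inhibition control: 150 μM kynurenic acid with 5 μM staurosporine. Values are normalized to controls; repeats are averaged or given as medians.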

For experiment [2], the target named is T2, AHR (Mus musculus, UniProt P30561).
T2 sequence (P30561 1-848 P471L/N533S/M589L): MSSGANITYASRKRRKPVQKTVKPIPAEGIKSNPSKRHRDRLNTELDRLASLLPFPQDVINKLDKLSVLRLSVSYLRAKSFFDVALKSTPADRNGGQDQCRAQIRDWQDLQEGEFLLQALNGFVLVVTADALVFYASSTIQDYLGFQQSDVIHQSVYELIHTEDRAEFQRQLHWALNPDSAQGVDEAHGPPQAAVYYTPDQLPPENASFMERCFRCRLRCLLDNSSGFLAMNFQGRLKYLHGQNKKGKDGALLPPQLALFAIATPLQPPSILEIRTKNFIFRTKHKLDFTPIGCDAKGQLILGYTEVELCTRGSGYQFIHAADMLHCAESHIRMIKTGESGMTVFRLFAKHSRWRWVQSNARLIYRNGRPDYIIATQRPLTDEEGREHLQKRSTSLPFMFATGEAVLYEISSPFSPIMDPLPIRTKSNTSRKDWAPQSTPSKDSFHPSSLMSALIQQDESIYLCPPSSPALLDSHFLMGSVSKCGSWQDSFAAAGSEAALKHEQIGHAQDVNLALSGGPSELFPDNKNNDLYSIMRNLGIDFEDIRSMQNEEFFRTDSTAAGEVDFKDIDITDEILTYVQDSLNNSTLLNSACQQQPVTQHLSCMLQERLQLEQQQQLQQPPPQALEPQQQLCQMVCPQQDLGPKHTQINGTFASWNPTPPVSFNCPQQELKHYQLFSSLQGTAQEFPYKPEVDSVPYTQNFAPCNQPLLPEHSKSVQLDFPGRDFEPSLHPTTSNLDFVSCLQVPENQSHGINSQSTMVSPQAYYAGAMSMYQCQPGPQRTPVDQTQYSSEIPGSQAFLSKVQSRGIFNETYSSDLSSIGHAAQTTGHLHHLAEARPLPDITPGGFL
Nature of the experiment: In vitro assay 3: antagonism in mouse cell line (AHR transactivation, firefly luciferase reporter, kynurenic acid prestimulated). In kind it is cell-based. The gist of the method:
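Kynurenic acid-prestimulated mouse reporter cells; stable AHR-inducible firefly luc construct with DRE sites in promoter. No-agonist wells = positive inhibition ctrl. Luminescence normalized to pos/neg ctrls; n>1 reported as mean or median.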

[3] abbreviates: mouse Hepa 1c1c7 cells, 200 μM kynurenic acid, 20 hours, read-out: AHR Antagonism Mouse IC50.
[4] abbreviates: read-out: AHR Antagonism Mouse IC50, mouse Hepa 1c1c7 cells, 200 μM kynurenic acid, 20 hours.
Where [5] appears, read: Hepa 1c1c7 cells, 200 μM kynurenic acid, 20 hours, firefly luciferase reporter, read-out: AHR Antagonism Mouse IC50.

Read-outs that look alike come from different tables or passages of the source.

Turning to `O=C1NCCCC[C@H]1Nc1nc2cccc(C3CC3)c2c2nc(-c3cccc(F)c3)nn12` [Example 175, (3R)-3-{[10-cyclopropyl-2-(3-fluorophenyl)[1,2,4]triazolo[1,5-c]quinazolin-5-yl]amino}azepan-2-one], the IC50 against AHR [1] was 3.24e-08 M; on AHR [2] (setting [3]), 0.0223 µM.
For the molecule `COC(=O)c1cccc2nc(N[C@@H]3CCCCNC3=O)n3nc(-c4ccc(OC)cc4)nc3c12` [Example 252, methyl 2-(4-methoxyphenyl)-5-{[(3R)-2-oxoazepan-3-yl]amino}[1,2,4]triazolo[1,5-c]quinazoline-10-carboxylate], the half-maximal inhibitory concentration (IC50) was found to be 6.55e-08 M on AHR [1] and 0.0498 µM on AHR [2] (setting [3]).
Take `N#Cc1cccc(-c2nc3c4ccccc4nc(NC4CCCCCNC4=O)n3n2)c1` (stereo not shown) [Example 443, 3-(5-{[2-oxoazocan-3-yl]amino}[1,2,4]triazolo[1,5-c]quinazolin-2-yl)benzonitrile]: the concentration for half-maximal inhibition (IC50) worked out at 1.02e-08 M on AHR [1] and 0.000672 µM on AHR [2] (setting [3]).
In the case of `O=C1NCCCC[C@H]1Nc1nc2ccccc2c2nc(-c3ccc(OC4CC4)cc3)nn12` [Example 612, (3R)-3-({2-[4-(cyclopropyloxy)phenyl][1,2,4]triazolo[1,5-c]quinazolin-5-yl}amino)azepan-2-one], the IC50 at AHR [1] was 1.32e-09 M; at AHR [2] (setting [3]), 0.00123 µM.
For the molecule `COc1cccc(-c2nc3c4c(C)cccc4nc(NC4CCNC4=O)n3n2)c1` (stereo not shown) [Example 179, 3-{[2-(3-methoxyphenyl)-10-methyl[1,2,4]triazolo[1,5-c]quinazolin-5-yl]amino}pyrrolidin-2-one], the values for the IC50 on AHR [1] and on AHR [2] (setting [4]) were 1.01e-07 M and 0.246 µM, respectively.
As for `COc1cccc(-c2nc3c4ccccc4nc(N[C@@H](C(N)=O)C(C)C)n3n2)c1` [Example 103, N^2-[2-(3-methoxyphenyl)[1,2,4]triazolo[1,5-c]quinazolin-5-yl]-D-valinamide], the IC50 against AHR [1] was determined as 4.43e-09 M; on AHR [2] (setting [3]), 0.000345 µM.
For `CCn1cc(-c2nc3c4cccc(Cl)c4nc(N[C@@H]4CNCCNC4=O)n3n2)cn1` [Example 957, (6R)-6-{[7-chloro-2-(1-ethyl-1H-pyrazol-4-yl)[1,2,4]triazolo[1,5-c]quinazolin-5-yl]amino}-1,4-diazepan-5-one], the IC50 stood at 1.22e-08 M against AHR [1] (firefly luciferase reporter) and 0.0168 µM at AHR [2] (setting [5]).
On to `Cn1cc(-c2nc3c4cccc(Br)c4nc(N[C@@H]4CCCNC4=O)n3n2)cn1` [Example 221, (3R)-3-{[7-bromo-2-(1-methyl-1H-pyrazol-4-yl)[1,2,4]triazolo[1,5-c]quinazolin-5-yl]amino}piperidin-2-one], for which the figures for the half-inhibitory concentration (IC50) on AHR [1] and on AHR [2] (setting [3]) were 3.46e-07 M and 0.653 µM, respectively.
For the molecule `CCCNC(=O)[C@@H](CC)Nc1nc2c(Br)cccc2c2nc(-c3ccc(Cl)cc3OC(F)(F)F)nn12` [Example 812, (2R)-2-({7-bromo-2-[4-chloro-2-(trifluoromethoxy)phenyl][1,2,4]triazolo[1,5-c]quinazolin-5-yl}amino)-N-propylbutanamide], the results for the half-inhibitory concentration (IC50) against AHR [1] (firefly luciferase reporter) and at AHR [2] (setting [5]) were 3.57e-09 M and 0.00247 µM, respectively.
On to `CS(=O)(=O)c1ccc(-c2nc3c4cccc(Br)c4nc(N[C@@H]4CNCCNC4=O)n3n2)cc1` [Example 715, (6R)-6-({7-bromo-2-[4-(methanesulfonyl)phenyl][1,2,4]triazolo[1,5-c]quinazolin-5-yl}amino)-1,4-diazepan-5-one], for which the IC50 amounted to 1.13e-08 M against AHR [1] and 0.0148 µM at AHR [2] (setting [3]).
With `O=C1NCCCC[C@H]1Nc1nc2ccccc2c2nc(-c3cccnc3)nn12` [Example 125, (3R)-3-{[2-(pyridin-3-yl)[1,2,4]triazolo[1,5-c]quinazolin-5-yl]amino}azepan-2-one], the IC50 on AHR [1] is 5.68e-10 M; on AHR [2] (setting [3]), 0.00464 µM.
On to `COc1ccc(-c2nc3c4ccccc4nc(N[C@H]4CCCCNC4=O)n3n2)c(C(F)(F)F)c1` [Example 513, (3S)-3-({2-[4-methoxy-2-(trifluoromethyl)phenyl][1,2,4]triazolo[1,5-c]quinazolin-5-yl}amino)azepan-2-one], for which the 50% inhibitory concentration (IC50) came to 2.66e-07 M at AHR [1] and 0.0356 µM on AHR [2] (setting [3]).
On to `CC[C@@H](Nc1nc2ccccc2c2nc(-c3cn(C)nn3)nn12)C(N)=O` [Example 793, (2R)-2-{[2-(1-methyl-1H-1,2,3-triazol-4-yl)[1,2,4]triazolo[1,5-c]quinazolin-5-yl]amino}butanamide], for which the half-maximal inhibitory concentration (IC50) came out at 2.94e-06 M at AHR [1] (firefly luciferase reporter) and 0.694 µM at AHR [2] (read-out: AHR Antagonism Mouse IC50, Hepa 1c1c7 cells, 200 μM kynurenic acid, 20 hours, firefly luciferase reporter).
As to `O=C1NCC[C@H]1Nc1nc2ccccc2c2nc(-c3ccc(Cl)cc3OC(F)(F)F)nn12` [Example 520, (3R)-3-({2-[4-chloro-2-(trifluoromethoxy)phenyl][1,2,4]triazolo[1,5-c]quinazolin-5-yl}amino)pyrrolidin-2-one], the half-maximal inhibitory concentration (IC50) at AHR [1] is 3.05e-08 M; on AHR [2] (setting [3]), 0.00959 µM.
`Cc1nn(C)cc1-c1nc2c3cccc(Br)c3nc(N[C@@H]3CNCCNC3=O)n2n1` [Example 962, (6R)-6-{[7-bromo-2-(1,3-dimethyl-1H-pyrazol-4-yl)[1,2,4]triazolo[1,5-c]quinazolin-5-yl]amino}-1,4-diazepan-5-one]: the half-maximal inhibitory concentration (IC50) at AHR [1] (firefly luciferase reporter) was found to be 4.37e-09 M; on AHR [2] (setting [5]), 0.0109 µM.
`Cn1cc(-c2nc3c4c(Cl)cccc4nc(N[C@@H]4CCCCNC4=O)n3n2)cn1` [Example 169, (3R)-3-{[10-chloro-2-(1-methyl-1H-pyrazol-4-yl)[1,2,4]triazolo[1,5-c]quinazolin-5-yl]amino}azepan-2-one]: the half-inhibitory concentration (IC50) was determined as 7.27e-09 M on AHR [1] and 0.118 µM on AHR [2] (setting [4]).
As to `COc1ccc(-c2nc3c4cccc(Br)c4nc(N[C@H](C)C(=O)N4C[C@H]5C[C@@H]4CN5C)n3n2)cc1` [Example 903, (2R)-2-{[7-bromo-2-(4-methoxyphenyl)[1,2,4]triazolo[1,5-c]quinazolin-5-yl]amino}-1-[(1R,4R)-5-methyl-2,5-diazabicyclo[2.2.1]heptan-2-yl]propan-1-one], the concentration for half-maximal inhibition (IC50) amounted to 4.09e-09 M on AHR [1] (firefly luciferase reporter) and 0.00659 µM on AHR [2] (setting [5]).
With `Cc1ccccc1-c1nc2c3ccccc3nc(NC3CCNC3=O)n2n1` (single isomer, unassigned) [Example 51, 3-{[2-(2-methylphenyl)[1,2,4]triazolo[1,5-c]quinazolin-5-yl]amino}pyrrolidin-2-one], the IC50 against AHR [1] turned out to be 3.09e-08 M; at AHR [2] (setting [3]), 0.131 µM.
Regarding `O=C1NCCCC[C@H]1Nc1nc2c(Br)cccc2c2nc(-c3cnn(CC4CC4)c3)nn12` [Example 826, (3R)-3-({7-bromo-2-[1-(cyclopropylmethyl)-1H-pyrazol-4-yl][1,2,4]triazolo[1,5-c]quinazolin-5-yl}amino)azepan-2-one], the IC50 was 1.77e-09 M at AHR [1] (firefly luciferase reporter) and 0.00226 µM on AHR [2] (setting [5]).
Regarding `O=C1NCCNC[C@H]1Nc1nc2cccc(C(F)(F)F)c2c2nc(-c3ccc(F)cc3)nn12` [Example 287, (6R)-6-{[2-(4-fluorophenyl)-10-(trifluoromethyl)[1,2,4]triazolo[1,5-c]quinazolin-5-yl]amino}-1,4-diazepan-5-one], the results for the IC50 against AHR [1] and on AHR [2] (setting [3]) were 6.55e-06 M and 0.756 µM, respectively.
